In paper PMC6084781 (Cancer letters, 2018):

Assays:
ABCG2 = molecular target: T1, ABCG2 (Homo sapiens, UniProt Q9UNQ0); assay: vanadate-sensitive ATPase stimulation in membrane vesicles; format: biochemical
T1 sequence (Q9UNQ0 1-655): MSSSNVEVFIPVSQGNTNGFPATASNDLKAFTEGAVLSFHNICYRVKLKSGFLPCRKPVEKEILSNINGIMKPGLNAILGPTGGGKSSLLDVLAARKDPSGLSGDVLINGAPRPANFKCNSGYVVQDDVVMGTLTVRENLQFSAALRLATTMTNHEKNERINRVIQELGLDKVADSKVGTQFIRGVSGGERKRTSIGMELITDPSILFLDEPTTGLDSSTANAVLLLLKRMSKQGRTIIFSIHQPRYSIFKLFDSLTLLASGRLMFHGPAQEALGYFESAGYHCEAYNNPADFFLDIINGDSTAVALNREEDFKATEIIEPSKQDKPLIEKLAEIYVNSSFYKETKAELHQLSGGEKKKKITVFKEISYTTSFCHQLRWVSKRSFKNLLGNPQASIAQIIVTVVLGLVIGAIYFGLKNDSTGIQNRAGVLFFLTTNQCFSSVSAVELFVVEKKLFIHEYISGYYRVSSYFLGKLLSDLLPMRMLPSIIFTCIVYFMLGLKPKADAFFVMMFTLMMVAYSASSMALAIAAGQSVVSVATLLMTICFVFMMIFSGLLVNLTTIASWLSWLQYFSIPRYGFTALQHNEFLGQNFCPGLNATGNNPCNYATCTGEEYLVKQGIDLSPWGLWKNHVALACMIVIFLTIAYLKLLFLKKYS

ABCB1 = ABCB1 (Homo sapiens, UniProt P08183); assay: as above; format: biochemical
ABCB1, sequence (P08183 whole entry): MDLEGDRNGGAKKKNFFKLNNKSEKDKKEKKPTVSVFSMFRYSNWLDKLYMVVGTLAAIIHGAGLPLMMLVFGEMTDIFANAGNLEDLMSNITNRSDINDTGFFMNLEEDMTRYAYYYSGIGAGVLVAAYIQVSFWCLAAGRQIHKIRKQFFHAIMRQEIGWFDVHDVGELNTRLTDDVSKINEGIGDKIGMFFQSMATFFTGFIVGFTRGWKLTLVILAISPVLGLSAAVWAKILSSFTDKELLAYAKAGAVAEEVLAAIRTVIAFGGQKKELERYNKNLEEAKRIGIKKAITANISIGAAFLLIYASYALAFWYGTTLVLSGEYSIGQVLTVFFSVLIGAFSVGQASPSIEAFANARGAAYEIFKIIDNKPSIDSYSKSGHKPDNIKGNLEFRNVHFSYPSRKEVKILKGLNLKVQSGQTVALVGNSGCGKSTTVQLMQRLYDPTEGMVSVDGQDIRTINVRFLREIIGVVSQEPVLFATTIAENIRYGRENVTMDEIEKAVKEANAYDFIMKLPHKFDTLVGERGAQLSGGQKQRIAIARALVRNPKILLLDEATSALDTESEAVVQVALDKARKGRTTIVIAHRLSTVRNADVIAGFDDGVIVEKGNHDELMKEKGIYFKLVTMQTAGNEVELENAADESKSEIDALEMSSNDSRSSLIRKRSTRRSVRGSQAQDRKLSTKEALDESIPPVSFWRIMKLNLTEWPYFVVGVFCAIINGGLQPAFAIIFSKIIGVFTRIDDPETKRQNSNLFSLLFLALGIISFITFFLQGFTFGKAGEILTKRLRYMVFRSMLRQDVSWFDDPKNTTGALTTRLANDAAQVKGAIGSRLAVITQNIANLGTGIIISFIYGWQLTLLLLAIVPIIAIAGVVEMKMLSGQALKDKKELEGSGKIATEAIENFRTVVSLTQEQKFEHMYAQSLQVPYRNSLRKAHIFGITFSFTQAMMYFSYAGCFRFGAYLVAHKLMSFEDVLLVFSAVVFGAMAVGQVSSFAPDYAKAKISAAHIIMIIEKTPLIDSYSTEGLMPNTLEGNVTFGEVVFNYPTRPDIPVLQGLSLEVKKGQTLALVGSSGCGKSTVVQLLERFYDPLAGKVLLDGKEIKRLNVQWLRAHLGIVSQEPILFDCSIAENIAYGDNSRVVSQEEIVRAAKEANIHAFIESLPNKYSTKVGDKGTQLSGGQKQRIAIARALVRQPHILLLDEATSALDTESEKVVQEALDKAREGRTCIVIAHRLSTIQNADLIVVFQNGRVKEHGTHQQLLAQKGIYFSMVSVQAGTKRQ

Structure (SMILES): COc1cc2c(cc1OC)CN(C(=O)/C=C/c1c(-c3ccccc3)n(C)c3ncccc13)CC2 [SIS3]
- EC50 (ABCG2): ~60 nM
- EC50 (ABCB1): ~160 nM
